These results are taken from US10245239B2, “Astaxanthin anti-inflammatory synergistic combinations” (Lycored Ltd., priority 2013, dated 2019).

The subject of experiment [1] is LPS-stimulated macrophages. In words: NO production by LPS-stimulated macrophages. The format is cell-based, ICR mice. Particulars: astaxanthin alone, FIG. 1. As to the method: (§1) 100 U/ml penicillin. […] streptomycin (Beit-Haemek, Israel).
(§2) The anti-inflammatory effect was detected by inhibition of NO production and of TNF alpha production by LPS-stimulated macrophages.
NO levels in supernatants of cell cultures were determined by assaying nitrite levels using Griess reagent and sodium nitrite as a standard.

Experiment [2] has as its system LPS-stimulated macrophages. In words: TNF-alpha production by LPS-stimulated macrophages (ELISA). The settings on record: astaxanthin alone, FIG. 3. The format is cell-based, ICR mice. Here is the method:
as §1
Concentrations of TNF-alpha in cell culture supernatants were quantified by ELISA kits (Biolegend, SanDiego, Calif., USA).
as §2
Background: An ELISA detects its analyte on a solid surface through an enzyme-linked reagent.

Each structure is given as a SMILES string.

For `CC1=C(/C=C/C(C)=C/C=C/C(C)=C/C=C/C=C(C)/C=C/C=C(C)/C=C/C2=C(C)C(=O)[C@@H](O)CC2(C)C)C(C)(C)C[C@H](O)C1=O` [astaxanthin], the “inhibition of NO production” value in experiment [1] was “in a dose dependent manner”. In experiment [2], the “inhibition of TNF alpha production” value is recorded as “in a dose dependent manner”.
